In US8399501B2, “Crystalline alkoxyimidazol-1-ylmethyl biphenyl carboxylic acid and methods for preparing thereof” (Theravance, Inc., priority 2010, dated 2013):
One block for each compound: values may come before it.

Test: Solid state stability assessment (storage at 40° C. with desiccant, impurities by HPLC)
Format: physicochemical
Conditions: for % M + 28 (ethyl ester imidazole impurity, HPLC area percentage) / % M − 28 (acid dihydroimidazole impurity, HPLC area percentage) / Δ % M + 28 (increase relative to time zero) / Δ % M − 28 (increase relative to time zero): closed vials, Molecular Sieve 4A dessicant
Method: Samples of the crystalline 4′-{2-ethoxy-4-ethyl-5-[((S)-2-mercapto-4-methylpentanoyl-amino)methyl]imidazol-1-ylmethyl}-3′-fluorobiphenyl-2-carboxylic acid, the micronized crystalline compound, and the slurried micronized crystalline compound, about 15 mg each, were stored in multiple closed vials at 40° C. (with 1 g Molecular Sieve 4A dessicant included). At specific intervals, the entire contents of representative vials were analyzed by the following HPLC method:
Column: Agilent Zorbox SB-C18, 4.6×250 mm, 5 μm (Part No. 880975-902). Mobile Phase A: 80% water, 20% MeCN, 0.01% TFA. Mobile Phase B: 20% water, 80% MeCN, 0.01% TFA. Flow rate: 1 mL/min. Injection Volume: 20 μL. Detector: 225 nm.
Samples were prepared as 0.2-0.3 mg/mL stock solutions in 40% MeOH and 60% MeCN in water, depending on the solubility, for injection onto the HPLC. The amount of 4′-{2-ethoxy-4-ethyl-5-[(2-mercapto-4-methylpentanoylamino)methyl]imidazol-1-ylmethyl}-3′-fluorobiphenyl-2-carboxylic acid ethyl ester (M+28) and 4′-{4-ethyl-5-[(2-mercapto-4-methylpentanoylamino)methyl]-2-oxo-2,3-dihydroimidazol-1-ylmethyl}-3′-fluorobiphenyl-2-carboxylic acid (M−28) present were determined by HPLC area percentage (% AUC or area/area %).

[1] = 2 weeks at 40° C., listed as Ex. 1
[2] = 4 weeks at 40° C., listed as Ex. 1
[3] = 2 weeks at 40° C., listed as Ex. 2
[4] = 4 weeks at 40° C., listed as Ex. 2
[5] = 2 weeks at 40° C., listed as Ex. 3
[6] = 2 weeks at 40° C., listed as stable micronized acid imidazole
[7] = 4 weeks at 40° C., listed as Ex. 3
[8] = 4 weeks at 40° C., listed as stable micronized acid imidazole

% M + 28 (ethyl ester imidazole impurity, HPLC area percentage) [1]: 0.05% | % M − 28 (acid dihydroimidazole impurity, HPLC area percentage) [1]: 0.04% | Δ % M + 28 (increase relative to time zero) [1]: 0.05% | Δ % M − 28 (increase relative to time zero) [1]: −0.01% | % M + 28 (ethyl ester imidazole impurity, HPLC area percentage) [2]: 0.05% | % M − 28 (acid dihydroimidazole impurity, HPLC area percentage) [2]: 0.05% | Δ % M + 28 (increase relative to time zero) [2]: 0.05% | Δ % M − 28 (increase relative to time zero) [2]: 0% | % M + 28 (ethyl ester imidazole impurity, HPLC area percentage) (T = 0, 40° C., listed as Ex. 1): 0% | % M − 28 (acid dihydroimidazole impurity, HPLC area percentage) (T = 0, 40° C., listed as Ex. 1): 0.05%
Structure (SMILES): CCOc1nc(CC)c(CNC(=O)[C@@H](S)CC(C)C)n1Cc1ccc(-c2ccccc2C(=O)O)cc1F [Example 1, 4′-{2-Ethoxy-4-ethyl-5-[((S)-2-mercapto-4-methylpentanoylamino)methyl]imidazol-1-ylmethyl}-3′-fluorobiphenyl-2-carboxylic Acid]

Δ % M + 28 (increase relative to time zero) (2 weeks at 40° C.): about 0.30% | Δ % M − 28 (increase relative to time zero) (2 weeks at 40° C.): about 0.38% | % M + 28 (ethyl ester imidazole impurity, HPLC area percentage) [3]: 0.40% | % M − 28 (acid dihydroimidazole impurity, HPLC area percentage) [3]: 0.47% | Δ % M + 28 (increase relative to time zero) [3]: 0.30% | Δ % M − 28 (increase relative to time zero) [3]: 0.38% | % M + 28 (ethyl ester imidazole impurity, HPLC area percentage) [4]: 0.44% | % M − 28 (acid dihydroimidazole impurity, HPLC area percentage) [4]: 0.61% | Δ % M + 28 (increase relative to time zero) [4]: 0.34% | Δ % M − 28 (increase relative to time zero) [4]: 0.52% | % M + 28 (ethyl ester imidazole impurity, HPLC area percentage) (T = 0, 40° C., listed as Ex. 2): 0.10% | % M − 28 (acid dihydroimidazole impurity, HPLC area percentage) (T = 0, 40° C., listed as Ex. 2): 0.09%
Structure (SMILES): CCOc1nc(CC)c(CNC(=O)[C@@H](S)CC(C)C)n1Cc1ccc(-c2ccccc2C(=O)O)cc1F [Example 2, 4′-{2-ethoxy-4-ethyl-5-[((S)-2-mercapto-4-methylpentanoylamino)-methyl]imidazol-1-ylmethyl}-3′-fluorobiphenyl-2-carboxylic acid]

Δ % M + 28 (increase relative to time zero) (2 weeks at 40° C.): about 0.01% | Δ % M − 28 (increase relative to time zero) (2 weeks at 40° C.): about 0.05% | % M + 28 (ethyl ester imidazole impurity, HPLC area percentage) [5]: 0.07% | % M − 28 (acid dihydroimidazole impurity, HPLC area percentage) [5]: 0.20% | Δ % M + 28 (increase relative to time zero) [5]: 0.01% | Δ % M − 28 (increase relative to time zero) [5]: 0.05% | Δ % M + 28 (increase relative to time zero) [6]: ≤ 0.1% | Δ % M − 28 (increase relative to time zero) [6]: ≤ 0.1% | Δ % M + 28 (increase relative to time zero) (4 weeks at 40° C.): about 0.02% | Δ % M − 28 (increase relative to time zero) (4 weeks at 40° C.): about 0.09% | % M + 28 (ethyl ester imidazole impurity, HPLC area percentage) [7]: 0.08% | % M − 28 (acid dihydroimidazole impurity, HPLC area percentage) [7]: 0.24% | Δ % M + 28 (increase relative to time zero) [7]: 0.02% | Δ % M − 28 (increase relative to time zero) [7]: 0.09% | Δ % M + 28 (increase relative to time zero) [8]: ≤ 0.1% | Δ % M − 28 (increase relative to time zero) [8]: ≤ 0.1% | % M + 28 (ethyl ester imidazole impurity, HPLC area percentage) (T = 0, 40° C., listed as Ex. 3): 0.06% | % M − 28 (acid dihydroimidazole impurity, HPLC area percentage) (T = 0, 40° C., listed as Ex. 3): 0.15% | chemical degradation by HPLC after storage (about 40° C. for at least 2 weeks, with a desiccant such as molecular sieves): minimal chemical degradation
Structure (SMILES): CCOc1nc(CC)c(CNC(=O)[C@@H](S)CC(C)C)n1Cc1ccc(-c2ccccc2C(=O)O)cc1F [Example 3, 4′-{2-ethoxy-4-ethyl-5-[((S)-2-mercapto-4-methylpentanoylamino)methyl]imidazol-1-ylmethyl}-3′-fluorobiphenyl-2-carboxylic acid]
